Converted amounts (≈) assume the structure as drawn.
Tested on: Helicobacter pylori
Test: Antibacterial activity against Helicobacter pylori assessed as bacterial colonies formation incubated for 24 hrs measured after up to 5 days culturing time by CFU counting analysis
Format: functional

MIC | Structure (SMILES) | MBC
3 µg/mL (≈ 7.74 µM) | COc1cc(OC)c2ccn(CCCC[C@H]3CCC[C@]4(CC[C@H](C)O4)O3)c2c1 | 3 µg/mL (≈ 7.74 µM)
8.3 µg/mL (≈ 20.7 µM) | COc1cc(OC)c2ccn(CCCCC[C@H]3CCC[C@]4(CC[C@H](C)O4)O3)c2c1 | 8.3 µg/mL (≈ 20.7 µM)
> 100 µg/mL | COc1cc(OC)c2ccn(CCCCCCCC[C@H]3CCC[C@]4(CC[C@H](C)O4)O3)c2c1 | > 100 µg/mL
12.5 µg/mL (≈ 31 µM) | COc1cc(OC)c2c(c1)N(CCCC[C@H]1CCC[C@]3(CC[C@H](C)O3)O1)C(=O)C2 | 12.5 µg/mL (≈ 31 µM)
12.5 µg/mL (≈ 29.9 µM) | COc1cc(OC)c2c(c1)N(CCCCC[C@H]1CCC[C@]3(CC[C@H](C)O3)O1)C(=O)C2 | 12.5 µg/mL (≈ 29.9 µM)
16 µg/mL (≈ 34.8 µM) | COc1cc(OC)c2c(c1)N(CCCCCCCC[C@H]1CCC[C@]3(CC[C@H](C)O3)O1)C(=O)C2 | 16 µg/mL (≈ 34.8 µM)
12.5 µg/mL (≈ 30.9 µM) | COc1cc(OC)c2c(c1)[C@@H](CCCC[C@H]1CCC[C@]3(CC[C@H](C)O3)O1)OC2=O | 12.5 µg/mL (≈ 30.9 µM)
3 µg/mL (≈ 6.51 µM) | COc1cc(OC)c2c(c1)[C@@H](CCCCCCCC[C@H]1CCC[C@]3(CC[C@H](C)O3)O1)OC2=O | 3 µg/mL (≈ 6.51 µM)
2 µg/mL (≈ 4.78 µM) | COc1cc(OC)c2c(c1)[C@@H](CCCCC[C@H]1CCC[C@]3(CC[C@@H](C)O3)O1)OC2=O | 1 µg/mL (≈ 2.39 µM)
